From PubChem BioAssay AID330 (DTP/NCI, 2004)
“And” between values parts separate entries of the source, which are not always exact repeats. Identical values can stand only once. Toxic doses and inconclusive results are not listed. Rule for the calls: active = survival T/C of 150% or more; inactive = T/C below 125% in these data.

Tested on: P388 leukemia ip, CD2F1 mice, survival T/C
Test: NCI In Vivo Anticancer Drug Screen. Data for tumor model P388 Leukemia (intraperitoneal) in CD2F1 (CDF1) mice
Conditions: endpoint: median survival time, higher = longer survival
Procedure, shortened: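 Mice carrying the transplanted tumor received test compound or vehicle. Survival was recorded in each group, and the value is the treated-group measurement divided by that of the vehicle-treated control group.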

Measured: T/C

CN(C)c1ncnc2c1ncn2[C@H]1CCC[C@@H]1O
inactive: dose: 0.37 mg/kg/injection, schedule: Q01DX005 (ip), vehicle: Klucel (hydroxypropylcellulose) (HPC) 109 % of control | dose: 0.75 mg/kg/injection, schedule: Q01DX005 (ip), vehicle: Klucel (hydroxypropylcellulose) (HPC) 110 % of control | dose: 1.5 mg/kg/injection, schedule: Q01DX005 (ip), vehicle: Klucel (hydroxypropylcellulose) (HPC) 112 % of control and 116 % of control

NC(CCCCNC=O)C(=O)O (configuration not stated)
inactive: dose: 50.0 mg/kg/injection, schedule: Q01DX005 (ip), vehicle: saline 104 % of control | dose: 100.0 mg/kg/injection, schedule: Q01DX005 (ip), vehicle: saline 98 % of control | dose: 200.0 mg/kg/injection, schedule: Q01DX005 (ip), vehicle: saline 96 % of control

Cn1nc2c(c1-c1cccnc1)CCCc1ccccc1-2
inactive: dose: 12.5 mg/kg/injection, schedule: Q01DX009 (ip), vehicle: other 113 % of control | dose: 25.0 mg/kg/injection, schedule: Q01DX009 (ip), vehicle: other 110 % of control | dose: 50.0 mg/kg/injection, schedule: Q01DX009 (ip), vehicle: other 110 % of control | dose: 100.0 mg/kg/injection, schedule: Q01DX009 (ip), vehicle: other 99 % of control | dose: 200.0 mg/kg/injection, schedule: Q01DX009 (ip), vehicle: other 100 % of control

Clc1ccccc1C=NCC1CCC(CN=Cc2ccccc2Cl)CC1 (configuration not stated)
inactive: dose: 6.25 mg/kg/injection, schedule: Q01DX009 (ip), vehicle: saline with Tween-80 99 % of control | dose: 12.5 mg/kg/injection, schedule: Q01DX009 (ip), vehicle: saline with Tween-80 101 % of control | dose: 25.0 mg/kg/injection, schedule: Q01DX009 (ip), vehicle: saline with Tween-80 100 % of control | dose: 50.0 mg/kg/injection, schedule: Q01DX009 (ip), vehicle: saline with Tween-80 116 % of control

O=C(CO)N(O)c1ccc(Cl)cc1
inactive: dose: 50.0 mg/kg/injection, schedule: Q01DX009 (ip), vehicle: water 109 % of control | dose: 100.0 mg/kg/injection, schedule: Q01DX009 (ip), vehicle: water 101 % of control

O=Nc1c2n[nH]c1CCCCCCCCC2
inactive: dose: 50.0 mg/kg/injection, schedule: Q01DX005 (ip), vehicle: Klucel (hydroxypropylcellulose) (HPC) 101 % of control | dose: 100.0 mg/kg/injection, schedule: Q01DX005 (ip), vehicle: Klucel (hydroxypropylcellulose) (HPC) 101 % of control | dose: 200.0 mg/kg/injection, schedule: Q01DX005 (ip), vehicle: Klucel (hydroxypropylcellulose) (HPC) 98 % of control

CC(Cc1ccccc1)N(C)Cc1ccc(-c2ccc(Cl)cc2)o1 (configuration not stated)
inactive: dose: 60.0 mg/kg/injection, schedule: Q01DX005 (ip), vehicle: saline with Tween-80 110 % of control | dose: 120.0 mg/kg/injection, schedule: Q01DX005 (ip), vehicle: saline with Tween-80 107 % of control | dose: 240.0 mg/kg/injection, schedule: Q01DX005 (ip), vehicle: saline with Tween-80 107 % of control

Cc1[nH]c2ccc(N(C)C)cc2c(=O)c1CN(CCO)CCO
inactive: dose: 50.0 mg/kg/injection, schedule: Q01DX005 (ip), vehicle: saline with Tween-80 108 % of control | dose: 100.0 mg/kg/injection, schedule: Q01DX005 (ip), vehicle: saline with Tween-80 100 % of control | dose: 200.0 mg/kg/injection, schedule: Q01DX005 (ip), vehicle: saline with Tween-80 100 % of control

CCOC(=O)Nc1cc2c(c(N)n1)N=C(c1ccccc1)CN2C
inactive: dose: 12.5 mg/kg/injection, schedule: Q01DX001 (ip), vehicle: saline with Tween-80 111 % of control | dose: 25.0 mg/kg/injection, schedule: Q01DX001 (ip), vehicle: saline with Tween-80 101 % of control | dose: 50.0 mg/kg/injection, schedule: Q01DX001 (ip), vehicle: saline with Tween-80 111 % of control and 97 % of control | dose: 100.0 mg/kg/injection, schedule: Q01DX001 (ip), vehicle: saline with Tween-80 112 % of control | dose: 200.0 mg/kg/injection, schedule: Q01DX001 (ip), vehicle: saline with Tween-80 106 % of control

Nc1ncnc2c1ncn2C(C=O)OC(C=O)CO (configuration not stated)
active: dose: 9.38 mg/kg/injection, schedule: Q04DX003 (ip), vehicle: saline 177 % of control | dose: 12.5 mg/kg/injection, schedule: Q01DX009 (ip), vehicle: saline 150 % of control | dose: 25.0 mg/kg/injection, schedule: Q01DX009 (ip), vehicle: saline 186 % of control | dose: 75.0 mg/kg/injection, schedule: Q04DX003 (ip), vehicle: saline 209 % of control
inactive: dose: 4.4 mg/kg/injection, schedule: Q04DX003 (ip), vehicle: saline 118 % of control | dose: 6.6 mg/kg/injection, schedule: Q04DX003 (ip), vehicle: saline 118 % of control | dose: 37.5 mg/kg/injection, schedule: Q04DX003 (ip), vehicle: saline 118 % of control

C#CCN(C)CCO
inactive: dose: 100.0 mg/kg/injection, schedule: Q01DX009 (ip), vehicle: saline 111 % of control | dose: 200.0 mg/kg/injection, schedule: Q01DX009 (ip), vehicle: saline 111 % of control | dose: 400.0 mg/kg/injection, schedule: Q01DX009 (ip), vehicle: saline 116 % of control

N#C/C=C/C#N
inactive: dose: 0.15 mg/kg/injection, schedule: Q01DX009 (ip), vehicle: saline 100 % of control | dose: 0.3 mg/kg/injection, schedule: Q01DX009 (ip), vehicle: saline 109 % of control | dose: 0.6 mg/kg/injection, schedule: Q01DX009 (ip), vehicle: saline 113 % of control

CC(/C=C/c1ccccc1)=N\Nc1c(F)c(F)c(F)c(F)c1F
inactive: dose: 50.0 mg/kg/injection, schedule: Q01DX009 (ip), vehicle: Klucel (hydroxypropylcellulose) (HPC) 103 % of control | dose: 100.0 mg/kg/injection, schedule: Q01DX009 (ip), vehicle: Klucel (hydroxypropylcellulose) (HPC) 102 % of control | dose: 200.0 mg/kg/injection, schedule: Q01DX009 (ip), vehicle: Klucel (hydroxypropylcellulose) (HPC) 100 % of control
